Data taken from ChEMBL document CHEMBL6092215, “A Prostate-Specific Membrane Antigen-Targeting Small Molecule-Drug Conjugate Strategy to Overcome the Hematological Toxicity of Olaparib” (J Med Chem, 2024).

Tests used:
LNCaP = assay: Antiproliferative activity against human LNCaP cells with high PSMA expression assessed as effect on cell viability incubated for 72 hrs by MTT assay; format: functional, cell-based
CWR22R = assay: Antiproliferative activity against human 22Rv1 cells with high PSMA expression assessed as effect on cell viability incubated for 72 hrs by MTT assay; format: functional, cell-based; conditions: 22Rv1, 72 h
PC-3 = assay: Antiproliferative activity against PSMA negative human PC-3 cells assessed as effect on cell viability incubated for 72 hrs by MTT assay; format: functional
[1] = Antiproliferative activity against PSMA negative human RWPE-1 cells assessed as effect on cell viability incubated for 72 hrs by MTT assay; format: toxicity, cell-based; conditions: RWPE-1 cells (PSMA negative)

| IC50 (LNCaP) | Compound | IC50 (CWR22R) | CC50 (PC-3) | CC50 at 72 h [1] |
| --- | --- | --- | --- | --- |
| 190 µM | CSCC[C@H](NC(=O)CCC(=O)NCCCC[C@H](NC(=O)N[C@@H](CCC(=O)O)C(=O)O)C(=O)O)C(=O)N1CCN(C(=O)c2cc(Cc3n[nH]c(=O)c4ccccc34)ccc2F)CC1 | 175 µM | > 1000 µM | > 1000 µM |
| 111 µM | CC(C)[C@H](NC(=O)CCC(=O)NCCCC[C@H](NC(=O)N[C@@H](CCC(=O)O)C(=O)O)C(=O)O)C(=O)N1CCN(C(=O)c2cc(Cc3n[nH]c(=O)c4ccccc34)ccc2F)CC1 | 122 µM | > 1000 µM | > 1000 µM |
| 152 µM | O=C(O)CC[C@H](NC(=O)N[C@@H](CCCCNC(=O)CCC(=O)N[C@@H](Cc1ccccc1)C(=O)N1CCN(C(=O)c2cc(Cc3n[nH]c(=O)c4ccccc34)ccc2F)CC1)C(=O)O)C(=O)O | 132 µM | > 1000 µM | > 1000 µM |
| 202 µM | O=C(O)CC[C@H](NC(=O)N[C@@H](CCCCNC(=O)CCC(=O)N[C@@H](CO)C(=O)N1CCN(C(=O)c2cc(Cc3n[nH]c(=O)c4ccccc34)ccc2F)CC1)C(=O)O)C(=O)O | 209 µM | > 1000 µM | > 1000 µM |
| 162 µM | O=C(O)CC[C@H](NC(=O)N[C@@H](CCCCNC(=O)CCC(=O)NCCCC(=O)N1CCN(C(=O)c2cc(Cc3n[nH]c(=O)c4ccccc34)ccc2F)CC1)C(=O)O)C(=O)O | 134 µM | > 1000 µM | > 1000 µM |
| 147 µM | O=C(O)CC[C@H](NC(=O)N[C@@H](CCCCNC(=O)CCC(=O)NCC(=O)N1CCN(C(=O)c2cc(Cc3n[nH]c(=O)c4ccccc34)ccc2F)CC1)C(=O)O)C(=O)O | 126 µM | > 1000 µM | > 1000 µM |
| 130 µM | CC(C)C[C@H](NC(=O)CCC(=O)NCCCC[C@H](NC(=O)N[C@@H](CCC(=O)O)C(=O)O)C(=O)O)C(=O)N1CCN(C(=O)c2cc(Cc3n[nH]c(=O)c4ccccc34)ccc2F)CC1 | 113 µM | > 1000 µM | > 1000 µM |
| 129 µM | C[C@H](NC(=O)CCC(=O)NCCCC[C@H](NC(=O)N[C@@H](CCC(=O)O)C(=O)O)C(=O)O)C(=O)N1CCN(C(=O)c2cc(Cc3n[nH]c(=O)c4ccccc34)ccc2F)CC1 | 133 µM | > 1000 µM | > 1000 µM |
| 135 µM | CC[C@@H](C)[C@H](NC(=O)CCC(=O)NCCCC[C@H](NC(=O)N[C@@H](CCC(=O)O)C(=O)O)C(=O)O)C(=O)N1CCN(C(=O)c2cc(Cc3n[nH]c(=O)c4ccccc34)ccc2F)CC1 | 126 µM | > 1000 µM | > 1000 µM |
| 121 µM | CC(C)[C@@H](NC(=O)CCC(=O)NCCCC[C@H](NC(=O)N[C@@H](CCC(=O)O)C(=O)O)C(=O)O)C(=O)N1CCN(C(=O)c2cc(Cc3n[nH]c(=O)c4ccccc34)ccc2F)CC1 | 128 µM | > 1000 µM | > 1000 µM |
| 242 µM | NC(=O)NCCC[C@H](NC(=O)CCC(=O)NCCCC[C@H](NC(=O)N[C@@H](CCC(=O)O)C(=O)O)C(=O)O)C(=O)N1CCN(C(=O)c2cc(Cc3n[nH]c(=O)c4ccccc34)ccc2F)CC1 | 265 µM | > 1000 µM | > 1000 µM |

Second part, the compound before the results:

| Compound | IC50 (LNCaP) | IC50 (CWR22R) | CC50 (PC-3) | CC50 at 72 h [1] |
| --- | --- | --- | --- | --- |
| O=C(O)CC[C@H](NC(=O)N[C@@H](CCCCNC(=O)N1CCN(C(=O)c2cc(Cc3n[nH]c(=O)c4ccccc34)ccc2F)CC1)C(=O)O)C(=O)O | 251 µM | 314 µM | > 1000 µM | > 1000 µM |
| O=C(O)CC[C@H](NC(=O)N[C@@H](CCCCNC(=O)CCNC(=O)N1CCN(C(=O)c2cc(Cc3n[nH]c(=O)c4ccccc34)ccc2F)CC1)C(=O)O)C(=O)O | 273 µM | 327 µM | > 1000 µM | > 1000 µM |
| O=C(O)CC[C@H](NC(=O)N[C@@H](CCCCNC(=O)CCCNC(=O)N1CCN(C(=O)c2cc(Cc3n[nH]c(=O)c4ccccc34)ccc2F)CC1)C(=O)O)C(=O)O | 300 µM | 337 µM | > 1000 µM | > 1000 µM |
| O=C(O)CC[C@H](NC(=O)N[C@@H](CCCCNC(=O)CCCC(=O)N1CCN(C(=O)c2cc(Cc3n[nH]c(=O)c4ccccc34)ccc2F)CC1)C(=O)O)C(=O)O | 96.6 µM | 139 µM | > 1000 µM | > 1000 µM |
| O=C(O)CC[C@H](NC(=O)N[C@@H](CCCCNC(=O)c1cc(Cc2n[nH]c(=O)c3ccccc23)ccc1F)C(=O)O)C(=O)O | 283 µM | 455 µM | > 1000 µM | > 1000 µM |
| O=C(O)CC[C@H](NC(=O)N[C@@H](CCCCNC(=O)CCCCCCC(=O)N1CCN(C(=O)c2cc(Cc3n[nH]c(=O)c4ccccc34)ccc2F)CC1)C(=O)O)C(=O)O | 99.9 µM | 137 µM | > 1000 µM | > 1000 µM |
| O=C(O)CC[C@H](NC(=O)N[C@@H](CCCCNC(=O)CCC(=O)N[C@@H](C(=O)N1CCN(C(=O)c2cc(Cc3n[nH]c(=O)c4ccccc34)ccc2F)CC1)c1ccccc1)C(=O)O)C(=O)O | 173 µM | 162 µM | > 1000 µM | > 1000 µM |
| O=C(O)CC[C@H](NC(=O)N[C@@H](CCCCNC(=O)CCN1CCN(C(=O)c2cc(Cc3n[nH]c(=O)c4ccccc34)ccc2F)CC1)C(=O)O)C(=O)O | 284 µM | 286 µM | > 1000 µM | > 1000 µM |
| CN(CC(=O)N1CCN(C(=O)c2cc(Cc3n[nH]c(=O)c4ccccc34)ccc2F)CC1)C(=O)CCC(=O)NCCCC[C@H](NC(=O)N[C@@H](CCC(=O)O)C(=O)O)C(=O)O | 136 µM | 129 µM | > 1000 µM | > 1000 µM |
| O=C(O)CC[C@H](NC(=O)N[C@@H](CCCCNC(=O)CCOC(=O)N1CCN(C(=O)c2cc(Cc3n[nH]c(=O)c4ccccc34)ccc2F)CC1)C(=O)O)C(=O)O | 182 µM | 289 µM | > 1000 µM | > 1000 µM |
| O=C(O)CC[C@H](NC(=O)N[C@@H](CCCCNC(=O)CCSSCCC(=O)N1CCN(C(=O)c2cc(Cc3n[nH]c(=O)c4ccccc34)ccc2F)CC1)C(=O)O)C(=O)O | 259 µM | 432 µM | > 1000 µM | > 1000 µM |
| O=C(O)CC[C@H](NC(=O)N[C@@H](CCCCNC(=O)CCCNC(=O)CCCCCCC(=O)N1CCN(C(=O)c2cc(Cc3n[nH]c(=O)c4ccccc34)ccc2F)CC1)C(=O)O)C(=O)O | 238 µM | 208 µM | > 1000 µM | > 1000 µM |
